Reference: ChEMBL document CHEMBL1132498, “Increased antiviral activity of cyclic urea HIV protease inhibitors by modifying the P1/P1' substituents” (Bioorg Med Chem Lett, 1999)
pKi: −log10 of the molar value.

Experiments:
[1] = tested on: Human immunodeficiency virus 1; assay: Inhibitory activity was determined by measuring accumulation of viral RNA transcript after infection of cells with HIV-1; assay type: functional
[2] = Translatory activity was evaluated as ratio of Ki and IC90 *10e-5; assay type: functional
[3] = target: Human immunodeficiency virus type 1 protease (Human immunodeficiency virus 1, UniProt Q72874); assay: Binding affinity for HIV protease

Nc1[nH]nc2ccc(CN3C(=O)N(Cc4ccc5n[nH]c(N)c5c4)[C@H](Cc4ccccc4)[C@H](O)[C@@H](O)[C@H]3Cc3ccccc3)cc12
IC90 [1]: 2760 nM | Translation [2]: < 0.36

CCc1ccc(C[C@@H]2[C@H](O)[C@@H](O)[C@@H](Cc3ccc(CC)cc3)N(Cc3ccc4[nH]nc(N)c4c3)C(=O)N2Cc2ccc3[nH]nc(N)c3c2)cc1
IC90 [1]: 300 nM | pKi [3]: 10.17 | Translation [2]: 23

CCCc1ccc(C[C@@H]2[C@H](O)[C@@H](O)[C@@H](Cc3ccc(CCC)cc3)N(Cc3ccc4[nH]nc(N)c4c3)C(=O)N2Cc2ccc3[nH]nc(N)c3c2)cc1
IC90 [1]: 290 nM | pKi [3]: 10.17 | Translation [2]: 23

Cc1ccc(C[C@@H]2[C@H](O)[C@@H](O)[C@@H](Cc3ccc(C)cc3)N(Cc3ccc4[nH]nc(N)c4c3)C(=O)N2Cc2ccc3[nH]nc(N)c3c2)cc1
IC90 [1]: 780 nM | pKi [3]: 10.21 | Translation [2]: 8

CC(C)c1ccc(C[C@@H]2[C@H](O)[C@@H](O)[C@@H](Cc3ccc(C(C)C)cc3)N(Cc3ccc4[nH]nc(N)c4c3)C(=O)N2Cc2ccc3[nH]nc(N)c3c2)cc1
IC90 [1]: 410 nM | pKi [3]: 9.72 | Translation [2]: 46

CCCCc1ccc(C[C@@H]2[C@H](O)[C@@H](O)[C@@H](Cc3ccc(CCCC)cc3)N(Cc3ccc4[nH]nc(N)c4c3)C(=O)N2Cc2ccc3[nH]nc(N)c3c2)cc1
IC90 [1]: 180 nM | pKi [3]: 9.77 | Translation [2]: 94

Cc1cc(C)cc(C[C@@H]2[C@H](O)[C@@H](O)[C@@H](Cc3cc(C)cc(C)c3)N(Cc3ccc4[nH]nc(N)c4c3)C(=O)N2Cc2ccc3[nH]nc(N)c3c2)c1
IC90 [1]: 540 nM | pKi [3]: 10.17 | Translation [2]: 12

Cc1cccc(C[C@@H]2[C@H](O)[C@@H](O)[C@@H](Cc3cccc(C)c3)N(Cc3ccc4[nH]nc(N)c4c3)C(=O)N2Cc2ccc3[nH]nc(N)c3c2)c1
IC90 [1]: 740 nM | pKi [3]: 10.96 | Translation [2]: 1.5

CC(C)(C)c1cccc(C[C@@H]2[C@H](O)[C@@H](O)[C@@H](Cc3cccc(C(C)(C)C)c3)N(Cc3ccc4[nH]nc(N)c4c3)C(=O)N2Cc2ccc3[nH]nc(N)c3c2)c1
IC90 [1]: 390 nM | pKi [3]: 9.68 | Translation [2]: 54

CC(C)(C)c1ccc(C[C@@H]2[C@H](O)[C@@H](O)[C@@H](Cc3ccc(C(C)(C)C)cc3)N(Cc3ccc4[nH]nc(N)c4c3)C(=O)N2Cc2ccc3[nH]nc(N)c3c2)cc1
IC90 [1]: 100 nM | pKi [3]: 9.72 | Translation [2]: 190

Nc1n[nH]c2ccc(CN3C(=O)N(Cc4ccc5[nH]nc(N)c5c4)[C@H](Cc4ccccc4)[C@H](O)[C@@H](O)[C@H]3Cc3ccccc3)cc12
pKi [3]: > 11.00

Cc1ccc(C)c(C[C@@H]2[C@H](O)[C@@H](O)[C@@H](Cc3cc(C)ccc3C)N(Cc3ccc4[nH]nc(N)c4c3)C(=O)N2Cc2ccc3[nH]nc(N)c3c2)c1
IC90 [1]: 300 nM | pKi [3]: 10.47 | Translation [2]: 11
